The source of these data is a melting point compilation (Tetko et al.).

In general, melting point refers to the temperature, or range, at which the solid turns liquid.

SMILES strings stand for the structures.

For `CC(C)(C)c1cc(-c2cc(C(C)(C)C)cc(C(C)(C)C)c2Op2oc3c(C(C)(C)C)cc(C(C)(C)C)cc3c3cc(C(C)(C)C)cc(C(C)(C)C)c3o2)c(O)c(C(C)(C)C)c1`, the melting point was 245 to 250 °C. Turning to `Nc1cc(C(F)(F)C(F)(F)OC(F)(F)C(F)(F)OC(F)(F)C(F)(F)OC(F)(F)C(F)(F)C(F)(F)C(F)(F)C(F)(F)OC(F)(F)C(F)(F)c2ccc(O)c(N)c2)ccc1O`, the melting point was in the range of 92 to 95 °C. Turning to `C=CCOc1nc(NC(C)(C)CC(C)(C)C)nc(N(CCCCCCN(c2nc(NC(C)(C)CC(C)(C)C)nc(OCC=C)n2)C2CC(C)(C)NC(C)(C)C2)C2CC(C)(C)NC(C)(C)C2)n1`, the melting point is 210 to 212 °C. In the case of `COC(=O)c1ccccc1CN1C(=O)C2(COc3cc4c(cc32)OCO4)c2ccccc21` (centres undefined), the melting point is 166 to 167 °C. Compound `CCCCCCCCCCCCCCCC(=O)C(O)C(O)(C(=O)c1cccc(NC(=O)C(CSC(C)=O)Cc2ccccc2)c1)C(O)C(=O)CCCCCCCCCCCCCCC` (centres undefined) registered a melting point of 65 to 67 °C. Compound `CCCCC(CC)CN1C(=O)C(=c2[nH]c(=c3[nH]c(=C4C(=O)N(CC(CC)CCCC)C(=O)N(CC(CC)CCCC)C4=O)c4ccccc34)c3ccccc23)C(=O)N(CC(CC)CCCC)C1=O` (centres undefined) gave a melting point of 198 to 206 °C. Compound `CC(C)(C)OC(=O)NC(Cc1cc(I)c(Oc2cc(I)c(OCC3CO3)c(I)c2)c(I)c1)C(=O)OCC1CO1` (centres undefined) had a melting point of 105 °C. The same measure for `COc1ccc(C(c2ccccc2)C(C)(C(=O)C(C)(C(c2ccccc2)c2ccc(OC)c(OC)c2)N2C(=O)c3ccccc3C2=O)N2C(=O)c3ccccc3C2=O)cc1OC` (centres undefined): 159 to 161 °C; for `CN(C(=O)C(CC(Cc1ccccc1)C(N)=O)NC(=O)OCc1ccccc1)c1ccc(OCC(=O)NC(CC(N)=O)C(=O)NC(Cc2ccccc2)C(O)C(=O)N2CCCC2C(=O)NC(C)(C)C)cc1` (centres undefined): 85 to 91 °C; for `CCc1c(CCNC(=O)CCC(=O)CCC(=O)NCCc2ccc(OCc3ccccc3)c(OCc3ccccc3)c2CC)ccc(OCc2ccccc2)c1OCc1ccccc1`: 188 to 192 °C. For `CC(C)(C1CCC(OCC(CN2C(C)(C)CC3(CC2(C)C)OCCO3)OC(=O)c2ccccc2)CC1)C1CCC(OCC(CN2C(C)(C)CC3(CC2(C)C)OCCO3)OC(=O)c2ccccc2)CC1` (centres undefined), the melting point was in the range of 77 to 79 °C. The same measure for `Oc1ccccc1N1CCOCC1`: 128 °C. `CCCCCCCCCCCCCCCCCCN(CCCCCCCCCCCCCCCCCC)C(=O)c1cc(NS(=O)(=O)c2ccc(NN)nc2)c2ccccc2c1O`: the melting point is 96 to 98 °C. In turn, `CCCCCCCCCCOc1cc(OCCCCCCCCCC)cc(N(CC(=O)OCOC(C)=O)CC(=O)OCOC(C)=O)c1` had a melting point of 37 to 39 °C. The same measure for `CC(C)OC(=O)C(CCC(C(=O)OC(C)C)N1CCN(CC(=O)OC(C)(C)C)CCN(C=O)CCN(CC(=O)OC(C)(C)C)CC1)N1CCN(CC(=O)OC(C)(C)C)CCN(C=O)CCN(CC(=O)OC(C)(C)C)CC1` (centres undefined): 125 to 127 °C. The same measure for `[C-]#[N+]CS(=O)c1ccccn1` (centres undefined): 91 to 93 °C. `N=S(=O)(c1ccccc1)c1cccs1` (centres undefined) returned a melting point of 133 °C. Regarding `CCCCCCCCCCC1(CCCCCCCCCC)c2cc(-c3ccc4c(c3)C(CC)(CC)c3cc(-c5nc6ccccc6s5)ccc3-4)ccc2-c2ccc(-c3ccc4c(c3)C(CC)(CC)c3cc(N(c5ccccc5)c5ccccc5)ccc3-4)cc21`, the melting point was in the range of 228 to 229 °C. For the compound `CC(C)[Si](OC(=O)C(Cc1cc(I)c(Oc2cc(I)c(OCC3CO3)c(I)c2)c(I)c1)NC(=O)OC(C)(C)C)(C(C)C)C(C)C` (centres undefined), the melting point worked out at 109 °C.

In turn, `CC(C)n1c(CC[C@@H](O)C[C@@H](O)CC(=O)O)c(-c2ccc(F)cc2)c(-c2ccccc2)c1C(=O)NCc1cccc(C(=O)O)c1` had a melting point of 140 to 141 °C. The same measure for `O=C(OCc1ccc(OCCCCCCCCCCC2c3c(c4ccccc4c4ccccc34)-c3c2c2ccccc2c2ccccc32)cc1)c1cn(C2CC2)c2cc(F)c(F)cc2c1=O`: 71 to 73 °C.

In turn, `CCCCCCCCCCOc1c(-c2nc3ccccc3s2)sc(-c2sc(-c3nc4ccccc4s3)c(OCCCCCCCCCC)c2OCCCCCCCCCC)c1OCCCCCCCCCC` registered a melting point of 93.9 to 95 °C. Take `COc1cc(OC)c(/C=C/C(c2ccc(OC)c(NS(=O)(=O)C(F)(F)F)c2)S(=O)(=O)C(/C=C/c2c(OC)cc(OC)cc2OC)c2ccc(OC)c(NS(=O)(=O)C(F)(F)F)c2)c(OC)c1` (centres undefined): the melting point fell in the range of 144 to 146 °C. The same measure for `CS(C)(=O)=NC(=O)c1cc(Oc2ccc(C(F)(F)F)cc2Cl)ccc1Cl`: 128 to 131 °C; for `CS(=N)(=O)c1ccc([N+](=O)[O-])c(C(=O)C2C=CC(C(F)(F)F)=C(Oc3ccccc3)C2(Cl)[N+](=O)[O-])c1` (centres undefined): 62 to 63 °C; for `COc1cc(OC)c(/C=C/C(c2ccc(OC)c(NC(C)C(=O)O)c2)S(=O)(=O)C(/C=C/c2c(OC)cc(OC)cc2OC)c2ccc(OC)c(NC(C)C(=O)O)c2)c(OC)c1` (centres undefined): 176 to 180 °C. The compound `CCCCCCCCCCCCCCCCCCOC(=O)CSCc1cc(CSCC(=O)OCCCCCCCCCCCCCCCCCC)c(O)c(CSCC(=O)OCCCCCCCCCCCCCCCCCC)c1` registered a melting point of 70 to 71 °C. The same measure for `CC(C)[C@H](NC(=O)N(C)Cc1nc2ccccc2[nH]1)C(=O)N[C@@H](Cc1ccccc1)C[C@H](O)[C@H](Cc1ccccc1)NC(=O)[C@@H](NC(=O)N(C)Cc1nc2ccccc2[nH]1)C(C)C`: 150 to 152 °C; for `CCCCCCCCCCCCS(=O)(=O)Nc1cc(C(=O)Nc2ccc(Cl)c(Cl)c2)ccc1OC`: 151 to 152 °C. The compound `N#Cc1ccc(C=Cc2ccc(OCc3ccc4ccccc4n3)cc2)cc1` had a melting point of 116 to 118 °C. Turning to `Cc1nc(C(=O)Cl)c(C)o1`, the melting point came to 37.7 °C. Turning to `O=P(O)(C(F)(F)C(F)(F)C(F)(F)C(F)(F)C(F)(F)C(F)(F)C(F)(C(F)(F)F)C(F)(F)F)C(F)(F)C(F)(F)C(F)(F)C(F)(F)C(F)(F)C(F)(F)C(F)(C(F)(F)F)C(F)(F)F`, the melting point was 170 to 172 °C. The same measure for `CCc1nc2c(N)nc3cc(OCCCc4cccnc4)ccc3c2s1`: 172 to 173 °C; for `Cc1cc(Cc2ccc(O)c(C(c3cc(C)c(O)cc3C)c3cc(C)c(O)cc3C)c2)c(O)c(Cc2ccc(O)c(C(c3cc(C)c(O)cc3C)c3cc(C)c(O)cc3C)c2)c1`: 276 °C.

The compound `CS(=O)(=O)C1CCN(Cc2ccc(COc3cccc4c3CN(C3CCC(=O)NC3=O)C4=O)cc2)CC1` (centres undefined) returned a melting point of 173 to 175 °C. In the case of `C=CC(=O)NCNC(=O)C=C`, the melting point came to 185 °C. For the compound `O=C1c2cc(Sc3ccc(Cl)cc3)c(Sc3ccc(Cl)cc3)cc2C(=O)c2c1c(O)c1cc(Sc3ccc(Cl)cc3)c(Sc3ccc(Cl)cc3)cc1c2O`, the melting point is greater than 300 °C. In the case of `CCCCCCCCCCCCCCCCCCN(CCCCCCCCCCCCCCCCCC)C(=O)c1cc(NS(=O)(=O)c2cnc(NN)c(Cl)c2)c2ccccc2c1O`, the melting point lay within 75 to 77 °C. Compound `CCCCCCCCCCCCCCCC(=O)OC(CCCCCCCCCCCCCC)C(=O)N[C@H](C(=O)N[C@@H](CCC(=O)OCc1ccccc1)C(=O)OCc1ccccc1)C(C)C` (some centres undefined) had a melting point of 65 °C.
